From PMC12675575, “A BRET biosensor for measuring uncompetitive engagement of PRMT5 complexes in cells” (Nature Communications, 2025)
Values joined by “and” are separate entries in the source; they are usually repeats but may differ in a detail not shown here. Equal entries are not always repeated.

Columns and labels:
NL-PRMT5 = target: T1, NL-PRMT5 (Homo sapiens, UniProt O14744); test: CBH-002 affinity curve, HEK293, NL-PRMT5 fusion with empty carrier DNA (no WDR77); assay type: cell-based; design: unit not given here; details: Figure S2A NL-PRMT5, log([CBH-002])
T1 construct: host or cells: HEK293
Experimental: (§1) HEK293 cells (ATCC) were cultured in DMEM (Thermo Fisher) + 10% (v/v) FBS (Seredigm), and HCT116 cells (Horizon Discovery, #PAR-034 and #R02-033) were cultured in McCoy’s 5A (Thermo Fisher) + 10% FBS, with incubation in a humidified, 37 °C/5% CO2 incubator. Cells were split 1–3 days prior to performing experiments and used at roughly 80% confluency. […] Cells were transfected according to the manufacturer’s protocol using FuGENE HD (Promega). NanoLuc fusion DNA was diluted into Transfection Carrier DNA (Promega) in Opti-MEM at a ratio of 1:9 (mass/mass), and FuGENE HD was added at a ratio of 1:3 (μg DNA:μL lipid). For experiments using WDR77, untagged WDR77 DNA (Promega) was used in place of Carrier DNA. Formed complexes were combined with cells resuspended to a density of 2 × 10^5 cells/mL in Opti-MEM + 1% FBS at a ratio of 1:20 (vol:vol). Cells were plated into a flask and incubated at 37 °C in a humidified 5% CO2 atmosphere for 18–24 h, before being lifted and seeded into 96-well non-binding surface-treated plates (Corning). Cells were seeded at a density of 2 × 10^5 cells/mL in Opti-MEM + 1% FBS in 100 μL (96-well). The BRET probe CBH-002 was prepared first as a 100× stock in 100% DMSO (Sigma) and then diluted to a 20× stock in NanoBRET Tracer Dilution buffer (Promega). Test compounds were prepared as 1000× stocks in 100% DMSO and diluted to 10× stocks in Opti-MEM to prepare working stocks. […] NanoBRET Complete 3x Substrate was prepared by combining Nano-Glo Substrate and Extracellular NanoLuc Inhibitor in Opti-MEM, according to the manufacturer’s protocol (Promega). NanoBRET Complete 3× Substrate was added to cells and plates were measured on either a PheraSTAR FSX equipped with 450 nm (donor) and 610 nm (acceptor) filters, or a GloMAX Discover equipped with 450/8 nm BP (donor) and 600 nm LP (acceptor) filters, using a 0.3 s integration time.
(§2) EC50 values were obtained by fitting the BRET probe and compound affinity curves to a sigmoidal four-parameter fit model in Graphpad Prism:1 Y=Ymin+Ymax−Ymin/1+10^LogEC50−Xh where h is the Hill Slope.

PRMT7 = target: T2, PRMT7 (Homo sapiens, UniProt Q9NVM4); test: CBH-002 affinity curve, HEK293, PRMT7-NL fusion; assay type: cell-based; design: BRET, CBH-002 + DMSO / BRET, CBH-002 + GSK3326595: unit not given here; details: for BRET, CBH-002 + DMSO / BRET, CBH-002 + GSK3326595: Figure S2C PRMT7-NL, log([CBH-002])
T2 construct: host or cells: HEK293
T2 sequence (Q9NVM4 1-692): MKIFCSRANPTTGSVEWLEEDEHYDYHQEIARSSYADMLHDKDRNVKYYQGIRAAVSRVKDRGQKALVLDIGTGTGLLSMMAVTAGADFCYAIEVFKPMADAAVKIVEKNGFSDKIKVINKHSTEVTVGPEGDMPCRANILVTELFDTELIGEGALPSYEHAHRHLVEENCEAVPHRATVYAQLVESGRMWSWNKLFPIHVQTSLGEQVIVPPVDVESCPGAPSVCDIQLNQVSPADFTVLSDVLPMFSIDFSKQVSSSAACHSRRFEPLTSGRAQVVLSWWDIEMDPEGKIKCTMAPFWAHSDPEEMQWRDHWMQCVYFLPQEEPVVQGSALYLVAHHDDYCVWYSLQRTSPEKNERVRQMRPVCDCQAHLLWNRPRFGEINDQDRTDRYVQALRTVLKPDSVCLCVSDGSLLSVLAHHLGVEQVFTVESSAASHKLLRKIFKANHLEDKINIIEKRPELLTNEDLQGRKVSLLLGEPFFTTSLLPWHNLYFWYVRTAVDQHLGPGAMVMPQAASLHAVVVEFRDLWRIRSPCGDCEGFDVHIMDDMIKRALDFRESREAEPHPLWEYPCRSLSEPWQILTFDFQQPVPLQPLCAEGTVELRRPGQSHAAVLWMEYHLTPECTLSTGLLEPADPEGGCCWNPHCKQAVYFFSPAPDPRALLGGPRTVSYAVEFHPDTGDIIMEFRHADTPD
Experimental: as §1, §2

T1 sequence (O14744 whole entry, the tested form may be a part): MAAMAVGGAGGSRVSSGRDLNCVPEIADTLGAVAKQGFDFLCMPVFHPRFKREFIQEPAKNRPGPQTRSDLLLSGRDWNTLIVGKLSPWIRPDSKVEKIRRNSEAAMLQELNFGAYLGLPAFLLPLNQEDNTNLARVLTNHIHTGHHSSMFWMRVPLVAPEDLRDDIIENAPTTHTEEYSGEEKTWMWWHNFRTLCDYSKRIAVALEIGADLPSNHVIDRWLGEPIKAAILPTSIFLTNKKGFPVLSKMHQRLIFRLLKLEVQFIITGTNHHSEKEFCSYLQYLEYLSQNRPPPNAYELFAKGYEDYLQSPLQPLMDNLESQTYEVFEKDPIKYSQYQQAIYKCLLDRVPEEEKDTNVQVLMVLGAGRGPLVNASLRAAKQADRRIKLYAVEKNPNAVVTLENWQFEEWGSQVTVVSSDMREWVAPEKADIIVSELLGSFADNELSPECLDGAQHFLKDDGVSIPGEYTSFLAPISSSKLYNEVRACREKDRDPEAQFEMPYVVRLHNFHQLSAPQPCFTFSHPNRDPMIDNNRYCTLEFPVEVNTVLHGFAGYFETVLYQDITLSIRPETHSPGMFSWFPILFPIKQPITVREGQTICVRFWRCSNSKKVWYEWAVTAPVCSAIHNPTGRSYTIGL

O=C(CCc1ccc2n1[B-](F)(F)[N+]1=C(c3ccc[nH]3)C=CC1=C2)NCCCCC(=O)N1CCC(Nc2cc(C(=O)NC[C@H](O)CN3CCc4ccccc4C3)ncn2)CC1 [CBH-002]
BRET, CBH-002 + DMSO (NL-PRMT5; uM 0.04576): 20.5721 and 25.8738 and 18.388 | BRET, CBH-002 + GSK3326595 (NL-PRMT5; uM 0.04576): 1.809 and 2.429 and 2.181 | BRET, CBH-002 + DMSO (NL-PRMT5; uM 0.52288): 24.1037 and 25.1393 and 24.5832 | BRET, CBH-002 + GSK3326595 (NL-PRMT5; uM 0.52288): 4.538 and 4.814 and 4.399 | BRET, CBH-002 + DMSO (NL-PRMT5; uM 1): 34.4603 and 46.2115 and 36.0512 | BRET, CBH-002 + GSK3326595 (NL-PRMT5; uM 1): 12.5442 and 11.3355 and 11.5115 | BRET, CBH-002 + DMSO (NL-PRMT5; uM -0.43136): 17.1332 and 19.3006 and 16.5836 | BRET, CBH-002 + GSK3326595 (NL-PRMT5; uM -0.43136): 1.767 and 1.79 and 1.327 | BRET, CBH-002 + DMSO (NL-PRMT5; uM -0.90849): 13.1405 and 15.4187 and 12.8329 | BRET, CBH-002 + GSK3326595 (NL-PRMT5; uM -0.90849): 0.7756 and 0.9895 and 1.006 | BRET, CBH-002 + DMSO (NL-PRMT5; uM -1.20952): 13.3172 and 13.6477 and 14.1021 | BRET, CBH-002 + GSK3326595 (NL-PRMT5; uM -1.20952): 0.6778 and 0.9377 and 0.9652 | BRET, CBH-002 + DMSO (NL-PRMT5; uM -1.68664): 10.4832 and 12.4293 and 10.2869 | BRET, CBH-002 + GSK3326595 (NL-PRMT5; uM -1.68664): 1.144 and 1.071 and 1 | BRET, CBH-002 + DMSO (NL-PRMT5; uM -1.98767): 7.5477 and 8.773 and 6.804 | BRET, CBH-002 + GSK3326595 (NL-PRMT5; uM -1.98767): 0.4652 and 0.5599 and 0.5695 | BRET, CBH-002 + DMSO (NL-PRMT5; uM -2.46479): 4.066 and 4.851 and 4.778 | BRET, CBH-002 + DMSO (NL-PRMT5; uM -2.94191): 2.639 and 2.5785 and 2.4252 | BRET, CBH-002 + DMSO (PRMT7; uM 0.04576): 3.118 and 3.169 and 3.222 | BRET, CBH-002 + GSK3326595 (PRMT7; uM 0.04576): 2.264 and 3.024 and 2.623 | BRET, CBH-002 + DMSO (PRMT7; uM 0.52288): 4.4157 and 4.315 and 4.82 | BRET, CBH-002 + GSK3326595 (PRMT7; uM 0.52288): 4.289 and 4.449 and 4.432 | BRET, CBH-002 + DMSO (PRMT7; uM 1): 6.788 and 6.4376 and 8.0011 | BRET, CBH-002 + GSK3326595 (PRMT7; uM 1): 6.64 and 6.225 and 5.521 | BRET, CBH-002 + DMSO (PRMT7; uM -0.43136): 2.545 and 2.3934 and 2.684 | BRET, CBH-002 + GSK3326595 (PRMT7; uM -0.43136): 2.418 and 2.903 and 2.394 | BRET, CBH-002 + DMSO (PRMT7; uM -0.90849): 2.174 and 2.245 and 2.2 | BRET, CBH-002 + GSK3326595 (PRMT7; uM -0.90849): 2.014 and 2.113 and 2.172 | BRET, CBH-002 + DMSO (PRMT7; uM -1.20952): 2.33 and 1.992 and 2.793 | BRET, CBH-002 + GSK3326595 (PRMT7; uM -1.20952): 1.945 and 2.184 and 2.019 | BRET, CBH-002 + DMSO (PRMT7; uM -1.68664): 2.292 and 2.046 and 2.033 | BRET, CBH-002 + GSK3326595 (PRMT7; uM -1.68664): 2.038 and 1.973 and 2.006 | BRET, CBH-002 + DMSO (PRMT7; uM -1.98767): 1.964 and 2.061 and 2.054 | BRET, CBH-002 + GSK3326595 (PRMT7; uM -1.98767): 1.921 and 2.272 and 1.954 | BRET, CBH-002 + DMSO (PRMT7; uM -2.46479): 2.032 and 2.041 and 2.0419 | BRET, CBH-002 + GSK3326595 (PRMT7; uM -2.46479): 2.119 and 2.05 and 2.0804 | BRET, CBH-002 + DMSO (PRMT7; uM -2.94191): 1.985 and 2.058 and 2.072 | BRET, CBH-002 + GSK3326595 (PRMT7; uM -2.94191): 1.954 and 1.961 and 1.971 | CBH-002 engagement at PRMT7 (PRMT7; HEK293, PRMT7-NL): did not show engagement
